Reference: PMC2940852 (Biochemical pharmacology, 2010)

Experiments:
[1] = tested on: dually-perfused human placental lobule; test: Transplacental transfer, dual perfusion of human placental lobule; type: in vitro ADME; settings: 4 hours perfusion, closed-closed
[2] = molecular target: T1, P-gp (Homo sapiens, UniProt P08183); settings: human placenta brush border membrane IOVs
[3] = tested on: placental tissue; test: Placental viability and functional parameters during perfusion; design: species or system human; settings: OH-bupropion 470 ng/ml, 4 hours, compared with control placentas
[4] = molecular target: T2, BCRP (Homo sapiens, UniProt Q9UNQ0); settings: human placenta brush border membrane IOVs
T2 sequence (Q9UNQ0 1-655): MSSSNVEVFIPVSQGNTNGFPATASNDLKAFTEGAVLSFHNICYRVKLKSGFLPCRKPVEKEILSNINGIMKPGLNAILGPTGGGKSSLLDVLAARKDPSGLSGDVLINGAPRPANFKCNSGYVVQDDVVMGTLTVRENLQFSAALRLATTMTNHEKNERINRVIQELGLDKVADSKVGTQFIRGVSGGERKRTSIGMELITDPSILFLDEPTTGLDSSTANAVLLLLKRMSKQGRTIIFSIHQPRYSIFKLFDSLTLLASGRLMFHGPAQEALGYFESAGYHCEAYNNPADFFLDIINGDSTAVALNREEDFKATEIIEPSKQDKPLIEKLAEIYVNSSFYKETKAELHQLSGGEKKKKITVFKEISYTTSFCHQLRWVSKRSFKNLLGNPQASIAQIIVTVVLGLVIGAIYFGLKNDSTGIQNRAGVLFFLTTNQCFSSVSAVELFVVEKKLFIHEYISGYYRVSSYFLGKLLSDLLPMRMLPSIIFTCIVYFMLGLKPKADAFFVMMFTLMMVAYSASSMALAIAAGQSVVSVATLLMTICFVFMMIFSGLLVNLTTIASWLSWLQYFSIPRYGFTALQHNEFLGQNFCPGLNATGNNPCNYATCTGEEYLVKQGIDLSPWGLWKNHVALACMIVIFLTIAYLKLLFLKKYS

[5] = tested on: placental tissue; test: Metabolism by placental tissue during perfusion; type: in vitro ADME, human; settings: 4 hours of perfusion; maternal and fetal perfusate and placental tissue
[6] = tested on: dually-perfused human placental lobule; settings: human placenta; cited from earlier work
[7] = molecular target: T2, BCRP; test: Stimulation of BCRP ATPase activity; type: biochemical; settings: insect cell membranes transfected with human BCRP
[8] = molecular target: T1, P-gp; test: Stimulation of P-gp ATPase activity; type: biochemical; settings: insect cell membranes transfected with human P-gp

T1 sequence (P08183 whole entry, the tested form may be a part): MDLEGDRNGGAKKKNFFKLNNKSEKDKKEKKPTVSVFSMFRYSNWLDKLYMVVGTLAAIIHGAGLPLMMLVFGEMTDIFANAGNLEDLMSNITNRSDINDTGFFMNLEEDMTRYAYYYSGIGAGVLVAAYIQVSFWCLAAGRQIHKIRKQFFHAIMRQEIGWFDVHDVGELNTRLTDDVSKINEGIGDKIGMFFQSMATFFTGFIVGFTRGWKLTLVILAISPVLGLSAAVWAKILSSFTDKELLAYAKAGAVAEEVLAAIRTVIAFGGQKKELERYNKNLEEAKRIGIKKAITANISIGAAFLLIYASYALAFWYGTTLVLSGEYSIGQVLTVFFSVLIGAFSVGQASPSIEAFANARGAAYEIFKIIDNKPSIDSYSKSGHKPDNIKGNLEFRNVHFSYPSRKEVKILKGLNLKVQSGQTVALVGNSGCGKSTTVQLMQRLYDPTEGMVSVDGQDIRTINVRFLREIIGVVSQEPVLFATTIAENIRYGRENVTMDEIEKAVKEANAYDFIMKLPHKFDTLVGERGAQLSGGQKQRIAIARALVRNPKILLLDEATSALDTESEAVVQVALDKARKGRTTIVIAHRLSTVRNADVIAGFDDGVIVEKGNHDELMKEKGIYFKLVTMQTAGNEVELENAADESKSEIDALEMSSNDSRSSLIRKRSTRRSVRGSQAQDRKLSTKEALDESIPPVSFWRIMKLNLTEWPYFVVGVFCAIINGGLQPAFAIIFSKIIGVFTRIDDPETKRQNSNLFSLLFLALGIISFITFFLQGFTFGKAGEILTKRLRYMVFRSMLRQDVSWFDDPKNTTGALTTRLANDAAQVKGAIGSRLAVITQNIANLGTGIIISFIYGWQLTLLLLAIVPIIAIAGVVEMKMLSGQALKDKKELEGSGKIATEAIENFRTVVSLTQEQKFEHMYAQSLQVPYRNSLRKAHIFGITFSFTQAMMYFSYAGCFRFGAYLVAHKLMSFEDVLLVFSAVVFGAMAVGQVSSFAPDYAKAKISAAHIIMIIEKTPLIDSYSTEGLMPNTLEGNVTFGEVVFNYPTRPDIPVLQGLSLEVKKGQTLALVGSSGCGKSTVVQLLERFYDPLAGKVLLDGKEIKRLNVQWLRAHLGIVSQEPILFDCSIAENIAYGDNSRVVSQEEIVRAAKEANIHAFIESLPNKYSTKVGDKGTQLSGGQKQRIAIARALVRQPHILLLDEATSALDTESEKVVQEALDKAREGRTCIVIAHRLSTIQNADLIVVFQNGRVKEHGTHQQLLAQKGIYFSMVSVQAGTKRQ

## C[C@H]1NC(C)(C)CO[C@]1(O)c1cccc(Cl)c1 [OH-bupropion, hydroxybupropion]
[1]
  Fetal circuit concentration as % of initial concentration in maternal circuit: 32 ± 3%
[1]; initial maternal concentration 470 ± 17 ng/ml
  Concentration in the fetal circuit at the end of the experimental period: 151 ± 13 ng/mL
[2]
  Transported substrate of P-gp: not a transported substrate
[3]
  Placental viability and functional parameters during perfusion: unchanged
[4]
  Transported substrate of BCRP: not a transported substrate
[5]
  Biotransformation by placental enzymes during perfusion: without undergoing biotransformation

## Cc1cc(=O)n(-c2ccccc2)n1C [antipyrine]
[6]
  Placental transfer (freely-diffusible compounds): 30–40%

## CC(NC(C)(C)C)C(=O)c1cccc(Cl)c1 (stereo not shown) [bupropion]
[7]
  Vmax of stimulation of ATPase activity by BCRP: 6 ± 0.8 nmoles Pi/mg protein*min
[8]
  Vmax of stimulation of ATPase activity by P-gp: 9.5 ± 1.6 nmoles Pi/mg protein*min

## CN1CCC[C@H]1c1cccnc1 [nicotine]
[6]
  Placental transfer (freely-diffusible compounds): 30–40%
